The EC50 is the midpoint of the concentration-response curve.

This experiment addresses T1, human M4 muscarinic acetylcholine receptor (Homo sapiens, UniProt P08173).
T1 construct: expressed in transfected cells; host or cells: CHO-K1
T1 sequence (P08173 1-479): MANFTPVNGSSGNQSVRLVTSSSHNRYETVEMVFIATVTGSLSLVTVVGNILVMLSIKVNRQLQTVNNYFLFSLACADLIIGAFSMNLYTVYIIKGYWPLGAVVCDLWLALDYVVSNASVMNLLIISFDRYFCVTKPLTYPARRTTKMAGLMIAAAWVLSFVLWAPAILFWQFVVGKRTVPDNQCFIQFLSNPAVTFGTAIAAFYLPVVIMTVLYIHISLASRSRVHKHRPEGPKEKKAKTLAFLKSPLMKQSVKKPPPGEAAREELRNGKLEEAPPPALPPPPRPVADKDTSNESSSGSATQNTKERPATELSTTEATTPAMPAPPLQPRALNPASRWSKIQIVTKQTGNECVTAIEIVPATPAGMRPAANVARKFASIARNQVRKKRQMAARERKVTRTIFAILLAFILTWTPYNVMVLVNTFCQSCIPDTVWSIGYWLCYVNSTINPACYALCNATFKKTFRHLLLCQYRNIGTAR
As to the kind of experiment: human FLIPR-based M4 PAM assay (CHO-K1 cells with human M4 receptor and Gαqi5, calcium dye fluorescence, acetylcholine at 20% of maximum response). Type of experiment: cell-based. Particulars: inflection point (IP) of 4 parameter logistic dose response curve, human M4 receptor + Gαqi5, FLIPR Tetra. The method, then: In a typical experiment the M4 muscarinic acetylcholine receptor modulating activity of the compounds of the present invention was determined in accordance with the following experimental method. CHO-K1 cells stably transfected with human M4 receptor and chimeric G-protein Gαqi5 (Coward P, et al., Analytical Biochemistry, 270:242-248 (1999)) are thawed from liquid N2 storage, resuspended in growth medium, plated in black, clear bottom 384 well plates, and incubated 16-20 hours at 37° C., 5% CO2. On the day of assay, growth medium is removed, the cells are washed 2 times with wash buffer, and cells are incubated in dye loading buffer at 37° C., 5% CO2 for ˜1 hour. Following dye loading the cell plates are placed in a FLIPR Tetra instrument and while monitoring dye fluorescence (excitation […]), 10 uL of test substance at increasing concentrations is added, and fluorescence values are recorded for 4 min. Next, 10 uL of acetylcholine is added (final concentration calculated so as to achieve 20% of the maximum acetycholine response), and the fluorescence reading is continued for 3.5 min. In some cases, a third addition of acetylcholine (final concentration calculated to achieve 70% of the maximal acetylcholine response) is performed. The resulting dose response curves are fit to a 4 parameter logistic equation and the final result is determined as the inflection point (IP) of the curve
CHO-K1 cells stably transfected with human M4 receptor and chimeric G-protein Gαqi5 are thawed from liquid N2 storage, resuspended in growth medium, plated in black, clear bottom 384 well plates, and incubated 16-20 hours at 37° C., 5% CO2.
On the day of assay, growth medium is removed, the cells are washed 2 times with wash buffer, and cells are incubated in dye loading buffer at 37° C., 5% CO2 for ˜1 h. Following dye loading the cell plates are placed in a FLIPR Tetra instrument and while monitoring dye fluorescence ([…]), 10 uL of test substance at increasing concentrations is added, and fluorescence values are recorded for 4 min. Next, 10 uL of acetylcholine is added (final concentration calculated so as to achieve 20% of the maximum acetycholine response), and the fluorescence reading is continued for 3.5 min. In some cases, a third addition of acetylcholine (final concentration calculated to achieve 70% of the maximal acetylcholine response) is performed.
For the compound `COc1ccc(OC2CCN(c3nc4c(cc3C)CN(C(=O)C3CN(C)C3)C4)CC2)cn1` [Example 52, (2-(4-((6-methoxypyridin-3-yl)oxy)piperidin-1-yl)-3-methyl-5,7-dihydro-6H-pyrrolo[3,4-b]pyridin-6-yl)(1-methylazetidin-3-yl)methanone], the 50% effective concentration (EC50) was determined as 453 nM.

Consider `COc1ccc(OC2CCN(c3nc4c(cc3C)CN(S(C)(=O)=O)C4)CC2)cn1` [Example 59, 2-(4-((6-methoxypyridin-3-yl)oxy)piperidin-1-yl)-3-methyl-6-(methylsulfonyl)-6,7-dihydro-5H-pyrrolo[3,4-b]pyridine], for which the EC50 is 125 nM.

As to `Cc1cc2c(nc1N1CCC(Oc3ccccc3)CC1)CNS2(=O)=O` [Example 77, 6-methyl-5-(4-phenoxypiperidin-1-yl)-2,3-dihydroisothiazolo[4,5-b]pyridine 1,1-dioxide], the EC50 worked out at 275 nM.

Take `Cc1cc2c(nc1N1CCC(Oc3ccccc3)CC1)CN(C(=O)C1CC1)C2` [Example 47, cyclopropyl(3-methyl-2-(4-phenoxypiperidin-1-yl)-5,7-dihydro-6H-pyrrolo[3,4-b]pyridin-6-yl)methanone]: the EC50 stood at 113 nM.

In the case of `COc1ccc(OC2CCN(c3nc4c(cc3C)CNC4)CC2)cn1` [Example 34, 2-(4-((6-Methoxypyridin-3-yl)oxy)piperidin-1-yl)-3-methyl-6,7-dihydro-5H-pyrrolo[3,4-b]pyridine], the EC50 was 349 nM.

On to `COc1ccc(OC2CCN(c3nc4c(cc3C)CN(C(C)=O)C4)CC2)cn1` [Example 40, 1-(2-(4-((6-methoxypyridin-3-yl)oxy)piperidin-1-yl)-3-methyl-5,7-dihydro-6H-pyrrolo[3,4-b]pyridin-6-yl)ethan-1-one], for which the EC50 is 162 nM.

For the compound `COc1ccc(OC2CCN(c3nc4c(cc3C)CN(S(=O)(=O)C3CC3)C4)CC2)cn1` [Example 58, 6-(Cyclopropylsulfonyl)-2-(4-((6-methoxypyridin-3-yl)oxy)piperidin-1-yl)-3-methyl-6,7-dihydro-5H-pyrrolo[3,4-b]pyridine], the EC50 was found to be 168 nM.

Regarding `Cc1cc2c(nc1N1CCC(Oc3cccc(C#N)c3)CC1)CNS2(=O)=O` [Example 76, 3-((1-(6-methyl-1,1-dioxido-2,3-dihydroisothiazolo[4,5-b]pyridin-5-yl)piperidin-4-yl)oxy)benzonitrile], the EC50 turned out to be 221 nM.

For the compound `COc1ccc(OC2CCN(c3nc4c(cc3C)C(=O)C(C)(C)C4)CC2)cn1` [Example 73, 2-(4-((6-Methoxypyridin-3-yl)oxy)piperidin-1-yl)-3,6,6-trimethyl-6,7-dihydro-5H-cyclopenta[b]pyridin-5-one], the EC50 turned out to be 292 nM.

Regarding `COc1ccc(OC2CCN(c3nc4c(cc3C)C(=O)N3CCOCC43)CC2)cn1` (stereo not shown) [Example 82, 2-(4-((6-methoxypyridin-3-yl)oxy)piperidin-1-yl)-3-methyl-7,8,10,10a-tetrahydro-5H-pyrido[2′,3′:3,4]pyrrolo[2,1-c][1,4]oxazin-5-one], the EC50 was found to be 92 nM.

On to `COc1ccc(OC2CCN(c3nc4nccn4c(Cl)c3C)CC2)cn1` [Example 28, 5-chloro-7-(4-((6-methoxypyridin-3-yl)oxy)piperidin-1-yl)-6-methylimidazo[1,2-a]pyrimidine], for which the EC50 is 589 nM.

Regarding `COc1ccc(OC2CCN(c3nc4c(cc3C)C(=O)OC4C)CC2)cn1` (racemic) [Example 29B, (R)-2-(4-((6-Methoxypyridin-3-yl)oxy)piperidin-1-yl)-3,7-dimethylfuro[3,4-b]pyridin-5(7H)-one and (S)-2-(4-((6-methoxypyridin-3-yl)oxy)piperidin-1-yl)-3,7-dimethylfuro[3,4-b]pyridin-5(7H)-one], the EC50 stood at 54 nM.

`COc1ccc(OC2CCN(c3nc4c(cc3C)CN(C(=O)[C@H](C)O)C4)CC2)cn1` [Example 51, (S)-2-hydroxy-1-(2-(4-((6-methoxypyridin-3-yl)oxy)piperidin-1-yl)-3-methyl-5,7-dihydro-6H-pyrrolo[3,4-b]pyridin-6-yl)propan-1-one]: the EC50 amounted to 109 nM.

For `Cc1cc2c(nc1N1CCC(Oc3ccccc3)CC1)CNC2` [Example 35, 3-methyl-2-(4-phenoxypiperidin-1-yl)-6,7-dihydro-5H-pyrrolo[3,4-b]pyridine], the EC50 stood at 76 nM.

As for `COc1ccc(OC2CCN(c3nc4n[nH]c(=O)n4cc3C)CC2)cn1` [Example 4], the EC50 worked out at 55 nM.

As for `COc1ccc(OC2CCN(c3nc4c(cc3C)CCC4)CC2)cn1` [Example 72, 2-(4-((6-Methoxypyridin-3-yl)oxy)piperidin-1-yl)-3-methyl-6,7-dihydro-5H-cyclopenta[b]pyridine], the concentration giving a half-maximal response (EC50) amounted to 1510 nM.

Turning to `COc1ccc(OC2CCN(c3nc4c(cc3C)C(=O)C(C)C4)CC2)cn1` (stereo not shown) [Example 74, 2-(4-((6-Methoxypyridin-3-yl)oxy)piperidin-1-yl)-3,6-dimethyl-6,7-dihydro-5H-cyclopenta[b]pyridin-5-one], the EC50 was 119 nM.

Take `COc1ccc(OC2CCN(c3nc4c(cc3C)CN(CCO)C4)CC2)cn1` [Example 37, 2-(2-(4-((6-methoxypyridin-3-yl)oxy)piperidin-1-yl)-3-methyl-5,7-dihydro-6H-pyrrolo[3,4-b]pyridin-6-yl)ethan-1-ol]: the EC50 was 133 nM.

Take `Cc1cc2c(=O)[nH]n(C)c2nc1N1CCC(Oc2ccc3cn[nH]c3c2)CC1` [Example 27, 6-(4-((1H-indazol-6-yl)oxy)piperidin-1-yl)-1,5-dimethyl-1,2-dihydro-3H-pyrazolo[3,4-b]pyridin-3-one]: the EC50 is 71 nM.

Regarding `COc1ccc(OC2CCN(c3nc4c(cc3C)C(O)CC4)CC2)cn1` (single isomer, unassigned) [Example 71A], the EC50 is 3080 nM.

As to `COc1ccc(OC2CCN(c3nc4[nH]c(=O)[nH]c4cc3C)CC2)cn1` [Example 79, 5-(4-((6-Methoxypyridin-3-yl)oxy)piperidin-1-yl)-6-methyl-1,3-dihydro-2H-imidazo[4,5-b]pyridin-2-one], the EC50 stood at 1170 nM.

With `Cc1cn2c(=O)n(C)nc2nc1N1CCC(Oc2ccccc2)CC1` [Example 19, 2,6-dimethyl-7-(4-phenoxypiperidin-1-yl)-[1,2,4]triazolo[4,3-a]pyrimidin-3(2H)-one], the EC50 worked out at 54 nM.

As for `COc1ccc(OC2CCN(c3nc4c(cc3C)CN(C(=O)C3CC3(F)F)C4)CC2)cn1` (stereo not shown) [Example 57, (2,2-difluorocyclopropyl)(2-(4-((6-methoxypyridin-3-yl)oxy)piperidin-1-yl)-3-methyl-5,7-dihydro-6H-pyrrolo[3,4-b]pyridin-6-yl)methanone], the EC50 was determined as 378 nM.

`Cc1cn2c(=O)[nH]nc2nc1N1CCC(Oc2ccc3c(c2)C(=O)N(C2CC2)C3)CC1` [Example 6, 7-(4-((2-cyclopropyl-3-oxoisoindolin-5-yl)oxy)piperidin-l-yl)-6-methyl-[1,2,4]triazolo[4,3-a]pyrimidin-3(2H)-one]: the EC50 worked out at 168 nM.

Regarding `COc1ccc(OC2CCN(c3nc4c(cc3C)CN(C(=O)CN(C)C)C4)CC2)cn1` [Example 54, 2-(dimethylamino)-1-(2-(4-((6-methoxypyridin-3-yl)oxy)piperidin-1-yl)-3-methyl-5,7-dihydro-6H-pyrrolo[3,4-b]pyridin-6-yl)ethan-1-one], the EC50 was found to be 238 nM.

For the origin of these results see patent US11230556B2 (Merck Sharp & Dohme Corp., priority 2016, dated 2022).
